According to patent US20080051454A1, “Compositions and methods for transient receptor potential vanilloid (TRPV) channel mediated treatments” (The Board of Trustees Operating Michigan State University, priority 2006, published 2008):

Assays:
[1] = tested on: renal cortex and medulla; test: Neonatal capsaicin treatment plus NS or HS diet: renal superoxide, SOD and NAD(P)H oxidase subunits; design: species or system rat
Method: Enhanced oxidative stress in kidneys of salt-sensitive hypertension: role of sensory nerves (Am J Physiol Heart Circ Physiol 291: H3136-H3143, 2006). To determine the mechanism(s) underlying enhanced oxidative stress in kidneys of salt-sensitive hypertension, neonatal Wistar rats were given vehicle or capsaicin (CAP, 50 mg/kg sc) on the first and second days of life. After being weaned, male rats were assigned into four groups and treated for 2 wk with the following: vehicle+a normal sodium diet (NS, 0.4%, CON-NS), vehicle+a high-sodium diet (HS, 4%, CON-HS), CAP+NS (CAP−NS), and CAP+HS (CAP−HS). […] Plasma and urinary 8-iso-prostaglandin F2alpha levels increased by approximately 40% in CON-HS and CAP−HS rats compared with their respective controls fed a NS diet (P≦0.05), and these parameters were higher in CAP−HS compared with CON-HS rats. Superoxide (O2—) levels in the renal cortex and medulla increased by approximately 45% in CAP−HS compared with CON-HS, CON-NS, and CAP−NS rats (P≦0.05). […]

[2] = tested on: WT and TRPV1−/− hearts; test: OLDA-induced CGRP and SP release from hearts (radioimmunoassay); design: species or system mouse
[3] = tested on: Wistar rats (Con-NS, Con-HS, Cap-NS, Cap-HS); test: Natriuretic, diuretic and depressor effects of i.v. diuretics in control and capsaicin-pretreated rats on normal or high sodium diet; format: in vivo, rat; conditions: intravenous
Method: (a) Urine flow rate. (b) Urine sodium excretion. […] (c) Mean arterial pressure. […] Vehicle; trichlormethiazide.
(a) Urine flow rate. (b) Urine sodium excretion. […] (c) Mean arterial pressure.
(a) Urine flow rate. (b) Urine sodium excretion. […] (c) Mean arterial pressure. […] Vehicle; amiloride.
Design and methods Neonatal Wistar rats were treated with capsaicin or vehicle. Seven-week-old male rats were treated for 2 weeks with: vehicle plus a normal (Con-NS) or high (Con-HS) sodium diet, and capsaicin pretreatment plus a normal (Cap-NS) or high (Cap-HS) sodium diet. Mean arterial pressure (MAP), renal excretory function, and protein expression determined by Western blot were performed.

[4] = tested on: TRPV1−/− hearts; test: Preconditioning (PC) protection against I/R in Langendorff hearts with receptor antagonists, TRPV1-null; design: species or system mouse; conditions: CAPZ 10^−7 M, CGRP8-37 10^−6 M, RP67580 10^−7 M
Method: Male TRPV1 gene knockout (TRPV1-/-) strain B6.129S[…][…]^tm1Jul and matching control wild type (WT) strain C57BL/6J mice were used (Jackson Laboratory, Bar Harbor, Me.). Mice were heparinized (500 U/kg i.p.) and anesthetized with pentobarbital sodium (50 mg/kg i.p.). […] The distal end of the catheter was connected to a […] Performance Analyzer via a pressure transducer. Coronary flow (CF) was continuously measured using an ultrasonic flow probe placed in the aortic perfusion line. Hearts were paced at 400 bpm except during ischemic PC and sustained global ischemia to avoid inducing excessive ventricular tachyarrhythmia during reperfusion, and pacing was reinitiated 2 minutes after reperfusion. Left ventricular developed pressure (LVDP, peak systolic minuses LVEDP) and LV peak positive […]) during isovolumic contraction were used as indices of LV systolic function; LVEDP and the peak negative […] used as indices of LV diastolic function. […] Non-preconditioned hearts were time-matched perfused with the same duration as that of preconditioned hearts. Group 1: Controls. As normal controls (nonischemic), WT and TRPV1-/- hearts were perfused for 130 minutes. For I/R controls, WT and TRPV1-/- hearts were first perfused with Krebs-Henseleit buffer for 55 min (time-matched perfusion of the equilibration period plus the PC period), and subsequently subjected to 30 minutes of no-flow normothermic global ischemia followed by 40-minutes of reperfusion. Group 2: PC. […] The hearts were subjected to 30 minutes of no-flow normothermic global ischemia followed by 40-minutes of reperfusion as that of I/R control groups. Group 3: PC plus capsazepine (CAPZ). […] Two additional concentrations of CAPZ, 10^-6M and 10^-8 M, were used in WT hearts. An additional drug control was added. After a 20-minute equilibration period, WT hearts were perfused with CAPZ (10^-7 M) for 10 minutes without PC, followed by perfusion with Krebs-Henseleit buffer for 25 minutes (time-matched perfusion of the PC period) and then subjected to I/R. Group 4: […] […]

[5] = tested on: WT hearts; test: Preconditioning (PC) protection against I/R in Langendorff hearts with receptor antagonists, wild type; design: species or system mouse
Method: Male TRPV1 gene knockout (TRPV1-/-) strain B6.129S[…][…]^tm1Jul and matching control wild type (WT) strain C57BL/6J mice were used (Jackson Laboratory, Bar Harbor, Me.). Mice were heparinized (500 U/kg i.p.) and anesthetized with pentobarbital sodium (50 mg/kg i.p.). […] The distal end of the catheter was connected to a […] Performance Analyzer via a pressure transducer. Coronary flow (CF) was continuously measured using an ultrasonic flow probe placed in the aortic perfusion line. Hearts were paced at 400 bpm except during ischemic PC and sustained global ischemia to avoid inducing excessive ventricular tachyarrhythmia during reperfusion, and pacing was reinitiated 2 minutes after reperfusion. Left ventricular developed pressure (LVDP, peak systolic minuses LVEDP) and LV peak positive […]) during isovolumic contraction were used as indices of LV systolic function; LVEDP and the peak negative […] used as indices of LV diastolic function. […] Non-preconditioned hearts were time-matched perfused with the same duration as that of preconditioned hearts. Group 1: Controls. As normal controls (nonischemic), WT and TRPV1-/- hearts were perfused for 130 minutes. For I/R controls, WT and TRPV1-/- hearts were first perfused with Krebs-Henseleit buffer for 55 min (time-matched perfusion of the equilibration period plus the PC period), and subsequently subjected to 30 minutes of no-flow normothermic global ischemia followed by 40-minutes of reperfusion. Group 2: PC. […] The hearts were subjected to 30 minutes of no-flow normothermic global ischemia followed by 40-minutes of reperfusion as that of I/R control groups. Group 3: PC plus capsazepine (CAPZ). […] Two additional concentrations of CAPZ, 10^-6M and 10^-8 M, were used in WT hearts. An additional drug control was added. After a 20-minute equilibration period, WT hearts were perfused with CAPZ (10^-7 M) for 10 minutes without PC, followed by perfusion with Krebs-Henseleit buffer for 25 minutes (time-matched perfusion of the PC period) and then subjected to I/R. Group 4: […] Two additional concentrations of CGRP8-37, 10^-5 M and 10^-7 M, were used in WT hearts. An additional drug control of CGRP8-37 was added as that of the CAPZ control group. Group 5: PC plus RP67580. To determine the role of endogenous SP during PC, hearts from WT and TRPV1-/-mice were perfused as that of CAPZ with RP67580 (10^-7 M), a selective neurokinin-1 (NK1) receptor antagonist. Two additional concentrations of RP67580, 10^-6 M and 10^-8 M, were used in WT hearts. An additional drug control of RP67580 was added as that of the CAPZ control group.

[6] = tested on: Wistar rats fed a normal-salt (NS) or high-salt (HS) diet for 10 days; test: MAP and HR responses to i.v. bolus NADA with or without antagonists in conscious rats; format: in vivo, rat; conditions: for prolonged depressor effect of NADA (decrease in MAP) after antagonist: NADA 4 mg/kg after CAPZ 3 mg/kg, CGRP8-37 infusion or SR141716A 3 mg/kg
Source text: In brief: Wistar rats were fed a normal (NS, 0.4%) or high (HS, 4%) sodium diet for 10 days, then artery and vein were cannulated for measurement of mean arterial pressure (MAP) or for injection of drugs and collection of plasma.
Animal Preparation: Male Wistar rats (7 weeks old, Charles River Laboratory, Wilmington, Mass.) were housed in the animal facility for 1 week before the experiment. Rats were grouped randomly and pair-fed a NS (0.4% of Na^+ by weight) or HS (4% of Na^+ by weight) diet for 10 days. The rat chow was purchased from Harlan Teklad Diets (Madison, Wis.). Drinking water was available ad libitum throughout the experiment. All protocols were in accordance with the National Institutes of Health Guidelines for the Care and Use of Laboratory Animals.
(§1) Surgical Preparation Rats were anesthetized with ketamine and xylazine (80 and 4 mg/kg intraperitoneally, respectively) for cannulation or with urethane (1.5 g/kg intraperitoneally) for capsaicin administration. The left jugular vein, carotid and femoral artery were cannulated under anesthesia for injection of drugs or monitoring of mean arterial pressure (MAP) and heart rate (HR).
Three hours after surgery, baseline MAP and its response to the above-mentioned drugs were obtained with the rats fully awake and unrestrained [Wang et al., Am J Physiol 2004; 287:H1868-H[874]. NADA was injected in increasing doses (1, 4, and 10 mg/kg intravenous bolus) in 3 subgroups of rats (each group for each dose). To determine the role of TRPV1 and CB 1 receptor in NADA-induced hypotension, NADA (4 mg/kg) was injected 10 minutes or 20 minutes after intravenous injection of CAPZ (3 mg/kg) or SR141716A (3 mg/kg), respectively.
To examine the effect of CGRP8-37 on NADA-induced hypotension, CGRP8-37 was intravenously administered at the rate of 1 mg/kg/min for 2 minutes followed by injection at the rate of 0.5 mg/kg/min for 15 minutes. NADA (4 mg/kg) was injected 1 minute after CGRPs-37 administration. The effectiveness of the dose and time frame for CGRP8-37 injection was verified by blockade of the hypotensive response to capsaicin (30 μg/kg) (n=5).

[7] = tested on: Wistar rats fed a NS or HS diet for 10 days; test: MAP responses to i.v. capsaicin with or without CAPZ in urethane-anesthetized rats; format: in vivo, rat; conditions: CGRP8-37 infusion; capsaicin 30 μg/kg
Method: as §1
Each dose of injection was separated by a 30-minute interval. To determine the specificity of capsaicin, CAPZ (3 mg/kg) was administered 10 minutes before capsaicin injection in a separate group.

[8] = tested on: hearts of WT mice; test: Langendorff perfused heart, ischemia and reperfusion (I/R) with OLDA, wild type; design: species or system mouse; conditions: antagonist 1×10^−6 M
Method: The following measurements were made on the two types of heart tissue: left ventricular end-diastolic pressure (LVEDP), left ventricular developed pressure (LVDP), coronary flow (CF), and left ventricular (LV) peak positive rate of pressure change/rate of time change (+dP/dt) were evaluated after I/R.

[9] = tested on: male Wistar rats; test: Depressor effect of 20-HETE analog DSR given IV, with or without antagonists; format: in vivo, rat; conditions: DSR 1 mg/kg with CAPZ 3 mg/kg, RP67580 4 mg/kg or CGRP 8-37 3 mg/kg
[10] = tested on: WT hearts; test: Lactate dehydrogenase (LDH) release during I/R; design: species or system mouse
Method: Lactate dehydrogenase (LDH) release: In addition to the measurement of cardiac function, cardiac injury was assessed by measuring LDH release. Perfusion effluent was collected during the first 10 minutes to 20 minutes of I/R and stored at […] until analyzed. Total LDH levels were determined with the use of a CytoTox 96 assay (Promega). The data were expressed as absorbance units released per milliliter per minute per gram of heart wet tissues (Turnbull et al., Am J Physiol Heart Circ Physiol 290: […]-9, 2006; herein incorporated by reference).

## COc1cc(C(C)=O)ccc1O [apocynin]
[1]; apocynin 0.1 mM, CAP−HS rats
  O2— production in renal cortex after ex vivo incubation: 2.83 0.38 nmol_min—1_mg dry wt—1
  O2— production in renal medulla after ex vivo incubation: 1.73 0.23 nmol_min—1_mg dry wt—1
[1]; apocynin, CON-HS, CON-NS and CAP−NS rats
  effect on O2— production: no significant effects
[1]; preincubation of renal tissues with apocynin
  effect on enhanced O2— levels in cortex and medulla of CAP−HS rats: prevented

## COc1ccc2c(c[n+](C)c3c4cc5c(cc4ccc23)OCO5)c1OC [chelerythrine]
[2]
  effect on OLDA-increased CGRP and SP release in WT hearts: blocked

## NS(=O)(=O)c1cc(C(=O)O)c(NCc2ccco2)cc1Cl [furosemide]
[3]
  effect on MAP (words): decreased MAP in Cap-HS but not in Cap-NS, Con-NS, and Con-HS rats
  time of peak urine flow rate (UFR) after injection: 5 min
[3]; listed as Furosemide
  effect on MAP (words): decreased MAP in Cap-HS rats only

## NS(=O)(=O)c1cc2c(cc1Cl)NC(C(Cl)Cl)NS2(=O)=O (centres unmarked) [trichlormethiazide]
[3]
  effect on MAP (words): decreased MAP in Cap-HS but not in Cap-NS, Con-NS, and Con-HS rats
  time of peak urine flow rate (UFR) after injection: 10 min
  urine flow / urine sodium excretion (words): significantly increased
[3]; listed as Trichlormethiazide
  effect on MAP (words): decreased MAP in Cap-HS rats only
  urine flow / urine sodium excretion (words): increased

## CGRP8-37: selective calcitonin gene-related peptide (CGRP) receptor antagonist peptide
[4]
  effect on these parameters in TRPV1−/− hearts: no effect
[5]
  effect on cardiac function in WT hearts without I/R: no effect on cardiac function
[5]; CAPZ 10^−7 M, CGRP8-37 10^−6 M, RP67580 10^−7 M
  effect on PC-induced cardiac protection (LVEDP, LVDP, CF, +dP/dt, −dP/dt) in WT hearts: blocked PC-induced cardioprotective effects
[6]; NADA 4 mg/kg
  effect of antagonist on NADA-induced depressor effect: abolished
[6]; HS diet
  prolonged depressor effect of NADA (decrease in MAP) after antagonist: 6±3 mmHg
[6]; NS diet
  prolonged depressor effect of NADA (decrease in MAP) after antagonist: 5±2 mmHg
[7]
  effect on hypotensive response to capsaicin: blockade
[8]
  effect on protective effect of OLDA in WT hearts: abolished
[9]
  DSR induced-depressor effect after antagonist: 9.3±3.3 mmHg
[10]
  effect on PC protection assessed by LDH levels after I/R in WT hearts: abolished
